# Results reported in US8163728B2, “Pyrazoles” (Hoffmann-La Roche Inc., priority 2009, dated 2012).
# Biological target: T1, GABA A α5 (Homo sapiens, UniProt P18507+P31644)
# T1 construct: expressed in transfected cells; host or cells: HEK293 cells, transiently transfected; membranes prepared from cell pellets
# Experiment: [3H]flumazenil competition binding, human GABA A α5β3γ2 receptors in HEK293 cell membranes
# Details: human receptor α5β3γ2 transiently transfected in HEK293; 0.5 nM [3H]flumazenil; 1 hour at 4° C.; means of two determinations; read-out: hKi GABA A α5
# Outline: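 Competition with [3H]flumazenil for binding to membranes of HEK293 cells transiently expressing human α5β3γ2, in Krebs-tris buffer pH 7.5. Incubated to equilibrium 1 h at 4 °C, filtered and scintillation-counted; Ki values are means of two determinations.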
row,Ki [nM],SMILES
1,1.3,"CCNC(=O)c1cc(/C=C/c2c(-c3ccc(F)cc3)noc2C)nn1C [Example 123, 5-{(E)-2-[3-(4-Fluoro-phenyl)-5-methyl-isoxazol-4-yl]vinyl}-2-methyl-2H-pyrazole-3-carboxylic acid ethylamide]"
2,2,"Cc1onc(-c2ccc(F)cc2)c1/C=C/c1cc(C(=O)NCC(C)(C)O)n(C)n1 [Example 124, 5-{(E)-2-[3-(4-Fluoro-phenyl)-5-methyl-isoxazol-4-yl]vinyl}-2-methyl-2H-pyrazole-3-carboxylic acid (2-hydroxy-2-methyl-propyl)-amide]"
3,0.4,"Cc1onc(-c2ccc(F)cc2)c1/C=C/c1cc(C(=O)NC2CCOCC2)n(C)n1 [Example 125, 5-{(E)-2-[3-(4-Fluoro-phenyl)-5-methyl-isoxazol-4-yl]vinyl}-2-methyl-2H-pyrazole-3-carboxylic acid (tetrahydro-pyran-4-yl)-amide]"
4,1.5,"Cc1onc(-c2ccc(F)cc2)c1/C=C/c1cc(C(N)=O)n(C)n1 [Example 126, 5-{(E)-2-[3-(4-Fluoro-phenyl)-5-methyl-isoxazol-4-yl]vinyl}-2-methyl-2H-pyrazole-3-carboxylic acid amide]"
5,29.3,"Cc1onc(-c2ccc(F)cc2)c1/C=C/c1cc(C(=O)N2CCS(=O)(=O)CC2)n(C)n1 [Example 127, (1,1-Dioxo-1,6-thiomorpholin-4-yl)-(5-{(E)-2-[3-(4-fluoro-phenyl)-5-methyl-isoxazol-4-yl]-vinyl}-2-methyl-2H-pyrazol-3-yl)-methanone]"
6,1.2,"Cc1onc(-c2ccc(F)cc2)c1/C=C/c1cc(C(=O)NCC(F)(F)F)n(C)n1 [Example 128, 5-{(E)-2-[3-(4-Fluoro-phenyl)-5-methyl-isoxazol-4-yl]vinyl}-2-methyl-2H-pyrazole-3-carboxylic acid (2,2,2-trifluoro-ethyl)-amide]"
7,11.8,"Cc1onc(-c2ccc(F)cc2)c1/C=C/c1cc(C(=O)N2CCOCC2)n(C)n1 [Example 129, (5-{(E)-2-[3-(4-Fluoro-phenyl)-5-methyl-isoxazol-4-yl]vinyl}-2-methyl-2H-pyrazol-3-yl)-morpholin-4-yl-methanone]"
8,0.9,"Cc1onc(-c2ccc(F)cc2)c1/C=C/c1cc(C(=O)NC(C)CO)n(C)n1 (centres unmarked) [Example 130, 5-{(E)-2-[3-(4-Fluoro-phenyl)-5-methyl-isoxazol-4-yl]vinyl}-2-methyl-2H-pyrazole-3-carboxylic acid (2-hydroxy-1-methyl-ethyl)-amide]"
9,36.5,"Cc1onc(-c2ccc(F)cc2)c1/C=C/c1cc(C(=O)N2CCS(=O)(=O)CC2)[nH]n1 [Example 131, (1,1-Dioxo-1,6-thiomorpholin-4-yl)-(5-{(E)-2-[3-(4-fluoro-phenyl)-5-methyl-isoxazol-4-yl]-vinyl}-2H-pyrazol-3-yl)-methanone]"
10,50.6,"Cc1onc(-c2ccc(F)cc2)c1/C=C/c1cc(C(=O)N2CCOCC2)[nH]n1 [Example 132, (5-{(E)-2-[3-(4-Fluoro-phenyl)-5-methyl-isoxazol-4-yl]vinyl}-2H-pyrazol-3-yl)-morpholin-4-yl-methanone]"
11,4.1,"Cc1onc(-c2ccc(F)cc2)c1/C=C/c1cc(C(=O)NCC(F)(F)F)[nH]n1 [Example 133, 5-{(E)-2-[3-(4-Fluoro-phenyl)-5-methyl-isoxazol-4-yl]vinyl}-2H-pyrazole-3-carboxylic acid (2,2,2-trifluoro-ethyl)-amide]"
12,5.2,"Cc1onc(-c2ccc(F)cc2)c1/C=C/c1cc(C(=O)NC(C)C)[nH]n1 [Example 134, 5-{(E)-2-[3-(4-Fluoro-phenyl)-5-methyl-isoxazol-4-yl]-vinyl}-2H-pyrazole-3-carboxylic acid isopropylamide]"
13,2.4,"Cc1onc(-c2ccc(F)cc2)c1/C=C/c1cc(C(=O)N2CC3(COC3)C2)n(C)n1 [Example 135, (5-{(E)-2-[3-(4-Fluoro-phenyl)-5-methyl-isoxazol-4-yl]-vinyl}-2-methyl-2H-pyrazol-3-yl)-(2-oxa-6-aza-spiro[3.3]hept-6-yl)-methanone]"
14,1.4,"Cc1onc(-c2ccc(F)cc2)c1/C=C/c1cc(C(=O)N2CC3(COC3)C2)[nH]n1 [Example 137, (5-{(E)-2-[3-(4-Fluoro-phenyl)-5-methyl-isoxazol-4-yl]vinyl}-2H-pyrazol-3-yl)-(2-oxa-6-aza-spiro[3.3]hept-6-yl)-methanone]"
15,11,"Cc1onc(-c2ccc(F)cc2)c1/C=C/c1cc(C(=O)NC(C)(C)CO)[nH]n1 [Example 138, 5-{(E)-2-[3-(4-Fluoro-phenyl)-5-methyl-isoxazol-4-yl]vinyl}-2H-pyrazole-3-carboxylic acid (2-hydroxy-1,1-dimethyl-ethyl)-amide]"
16,3,"Cc1onc(-c2ccc(F)cc2)c1/C=C/c1cc(C(=O)NC(C)CO)[nH]n1 (centres unmarked) [Example 139, 5-{(E)-2-[3-(4-Fluoro-phenyl)-5-methyl-isoxazol-4-yl]-vinyl}-2H-pyrazole-3-carboxylic acid (2-hydroxy-1-methyl-ethyl)-amide]"

row,Ki [nM],SMILES
1,3.8,"Cc1onc(-c2ccc(F)cc2)c1/C=C/c1cc(C(=O)NCC(C)(C)O)[nH]n1 [Example 140, 5-{(E)-2-[3-(4-Fluoro-phenyl)-5-methyl-isoxazol-4-yl]vinyl}-2H-pyrazole-3-carboxylic acid (2-hydroxy-2-methyl-propyl)-amide]"
2,8.1,"CCNC(=O)c1cc(/C=C/c2c(-c3ccc(F)cc3)noc2C)n[nH]1 [Example 141, 5-{(E)-2-[3-(4-Fluoro-phenyl)-5-methyl-isoxazol-4-yl]vinyl}-2H-pyrazole-3-carboxylic acid ethylamide]"
3,4.8,"Cc1onc(-c2ccc(F)cc2)c1/C=C/c1cc(C(N)=O)[nH]n1 [Example 142, 5-{(E)-2-[3-(4-Fluoro-phenyl)-5-methyl-isoxazol-4-yl]vinyl}-2H-pyrazole-3-carboxylic acid amide]"
4,7.4,"Cc1onc(-c2ccc(F)cc2)c1/C=C/c1cc(C(=O)NC(C)(C)CO)n(C)n1 [Example 143, 5-{(E)-2-[3-(4-Fluoro-phenyl)-5-methyl-isoxazol-4-yl]vinyl}-2-methyl-2H-pyrazole-3-carboxylic acid (2-hydroxy-1,1-dimethyl-ethyl)-amide]"
5,29.3,"Cc1onc(-c2ccc(F)cc2)c1CNc1cc(C(=O)NCC(C)(C)O)n(C)n1 [Example 144, 5-{[3-(4-Fluoro-phenyl)-5-methyl-isoxazol-4-ylmethyl]-amino}-2-methyl-2H-pyrazole-3-carboxylic acid (2-hydroxy-2-methyl-propyl)-amide]"
6,69.6,"Cc1onc(-c2ccc(F)cc2)c1CNc1cc(C(N)=O)n(C)n1 [Example 145, 5-{[3-(4-Fluoro-phenyl)-5-methyl-isoxazol-4-ylmethyl]-amino}-2-methyl-2H-pyrazole-3-carboxylic acid amide]"
7,15.2,"Cc1onc(-c2ccc(F)cc2)c1CNc1cc(C(=O)NCC(F)(F)F)n(C)n1 [Example 146, 5-{[3-(4-Fluoro-phenyl)-5-methyl-isoxazol-4-ylmethyl]-amino}-2-methyl-2H-pyrazole-3-carboxylic acid (2,2,2-trifluoro-ethyl)-amide]"
8,4.7,"Cc1onc(-c2ccc(F)cc2)c1CNc1cc(C(=O)NC2CCOCC2)n(C)n1 [Example 147, 5-{[3-(4-Fluoro-phenyl)-5-methyl-isoxazol-4-ylmethyl]-amino}-2-methyl-2H-pyrazole-3-carboxylic acid (tetrahydro-pyran-4-yl)-amide]"
9,5.4,"Cc1onc(-c2ccc(F)cc2)c1CNc1cc(C(=O)NC2(C)COC2)n(C)n1 [Example 148, 5-{[3-(4-Fluoro-phenyl)-5-methyl-isoxazol-4-ylmethyl]-amino}-2-methyl-2H-pyrazole-3-carboxylic acid (3-methyl-oxetan-3-yl)-amide]"
10,67.5,"Cc1onc(-c2ccc(F)cc2)c1CNc1cc(C(=O)N2CC3(COC3)C2)n(C)n1 [Example 149, (5-{[3-(4-Fluoro-phenyl)-5-methyl-isoxazol-4-ylmethyl]-amino}-2-methyl-2H-pyrazol-3-yl)-(2-oxa-6-aza-spiro[3.3]hept-6-yl)-methanone]"
11,26.2,"Cc1onc(-c2ccc(F)cc2)c1CNc1cc(C(=O)NC(C)CO)n(C)n1 (centres unmarked) [Example 150, 5-{[3-(4-Fluoro-phenyl)-5-methyl-isoxazol-4-ylmethyl]-amino}-2-methyl-2H-pyrazole-3-carboxylic acid (2-hydroxy-1-methyl-ethyl)-amide]"
12,13.6,"Cc1onc(-c2ccc(F)cc2)c1CNc1cc(C(=O)NC(C)C)n(C)n1 [Example 151, 5-{[3-(4-Fluoro-phenyl)-5-methyl-isoxazol-4-ylmethyl]-amino}-2-methyl-2H-pyrazole-3-carboxylic acid isopropylamide]"
13,20.9,"Cc1onc(-c2ccc(F)cc2)c1CNc1cc(C(=O)NCC(C)(C)O)[nH]n1 [Example 152, 5-{[3-(4-Fluoro-phenyl)-5-methyl-isoxazol-4-ylmethyl]-amino}-2H-pyrazole-3-carboxylic acid (2-hydroxy-2-methyl-propyl)-amide]"
14,43.4,"Cc1onc(-c2ccc(F)cc2)c1CNc1cc(C(N)=O)[nH]n1 [Example 153, 5-{[3-(4-Fluoro-phenyl)-5-methyl-isoxazol-4-ylmethyl]-amino}-2H-pyrazole-3-carboxylic acid amide]"
15,13,"Cc1onc(-c2ccc(F)cc2)c1CNc1cc(C(=O)NC(C)C)[nH]n1 [Example 154, 5-{[3-(4-Fluoro-phenyl)-5-methyl-isoxazol-4-ylmethyl]-amino}-2H-pyrazole-3-carboxylic acid isopropylamide]"
16,57.1,"CCNC(=O)c1cc(NCc2c(-c3ccc(F)cc3)noc2C)n[nH]1 [Example 155, 5-{[3-(4-Fluoro-phenyl)-5-methyl-isoxazol-4-ylmethyl]-amino}-2H-pyrazole-3-carboxylic acid ethylamide]"
